From US20050090529A1, “3,5 Disubstituted indazole compounds with nitrogen-bearing 5-membered heterocycles, pharmaceutical compositions, and methods for mediating or inhibiting cell proliferation” (PFIZER INC, priority 2003, published 2005) come the findings set out here.

Each structure is given as a SMILES string.

This test deals with Cyclin-dependent kinase. Put plainly: Cyclin-dependent kinase inhibition, % inhibition at 10 nM (library Examples 99-270). The conditions noted are these: 10 nM compound. The format is biochemical. The protocol:
Cyclin-dependent kinase activity was measured by quantifying the enzyme-catalyzed, time-dependent incorporation of radioactive phosphate from [^32P]ATP or [^33P]ATP into a protein substrate. Unless noted otherwise, assays were performed in 96-well plates in a total volume of 50 μL, in the presence of 10 mM HEPES (N-[2-hydroxyethyl]piperazine-N′-[2-ethanesulfonic acid]) (pH 7.4), 10 mM MgCl2, 25 μM adenosine triphosphate (ATP), 1 mg/mL ovalbumin, 5 μg/mL leupeptin, 1 mM dithiothreitol, 10 mM beta-glycerophosphate, 0.1 mM sodium vanadate, 1 mM sodium fluoride, 2.5 mM ethylene glycol-bis(β-aminoethyl ethKer)-N,N,N′N′-tetraacetic acid (EGTA), 2% (v/v) dimethylsulfoxide, and 0.03-0.4 μCi [^32/33P]ATP per reaction. Reactions were initiated with enzyme, incubated at 30° C., and terminated after 20 minutes by the addition of ethylenediaminetetraacetic acid (EDTA) to 250 mM. The phosphorylated substrate was then captured on a nitrocellulose or phosphocellulose membrane using a 96-well filtration manifold, and unincorporated radioactivity was removed by repeated washing with 0.85% phosphoric acid. Radioactivity was quantified by exposing the dried membranes to a phosphorimager.
Results of assays performed on compounds, which include the specific examples described above are provided in Examples 99-274 above, and in Table 1 below. Unless indicated otherwise in a particular entry, the units and assays used are as indicated in the applicable column of the table.
Turning to `CCNCc1cncc(-c2ccc3[nH]nc(-c4ncc(C(=O)N5CCCC(O)(Cn6cccn6)CC5)[nH]4)c3c2)c1C` (stereo not drawn) [Example 265, 1-{[2-(5-{5-[(ethylamino)methyl]-4-methylpyridin-3-yl}-1H-indazol-3-yl)-1H-imidazol-5-yl]carbonyl}-4-(1H-pyrazol-1-ylmethyl)azepan-4-ol], the “% Inhib @ 10 nM” value worked out at 29%.
The value for `CCNCc1cncc(-c2ccc3[nH]nc(-c4ncc(C(=O)N5CCN(c6ccccn6)CC5)[nH]4)c3c2)c1C` [Example 115, ethyl{[4-methyl-5-(3-{5-[(4-pyridin-2-piperazin-1-yl)carbonyl]-1H-imidazol-yl}-1H-indazol-5-yl)pyridin-3-yl]methyl}amine] was 72%; that for `CCNCc1cncc(-c2ccc3[nH]nc(-c4ncc(C(=O)N5CCC(CO)CC5)[nH]4)c3c2)c1C` [Example 177, (1-{[2-(5-{5-[(ethylamino)methyl]-4-methylpyridin-3-yl}-1H-indazol-3-yl)-1H-imidazol-5-yl]carbonyl}piperidin-4-yl)methanol] was 63%.
The value for `CCNCc1cncc(-c2ccc3[nH]nc(-c4ncc(C(=O)NCCc5nnc(-c6cnccn6)o5)[nH]4)c3c2)c1C` [Example 264] was 29%; that for `CCNCc1cncc(-c2ccc3[nH]nc(-c4ncc(C(=O)N(C)Cc5cnn(-c6ccccc6)c5)[nH]4)c3c2)c1C` [Example 225, 2-(5-{5-[(ethylamino)methyl]-4-methylpyridin-3-yl}-1H-indazol-3-yl)-N-methyl-N-[(1-phenyl-1H-pyrazol-4-yl)methyl]-1H-imidazole-5-carboxamide] was 70%; that for `CCNCc1cncc(-c2ccc3[nH]nc(-c4ncc(C(=O)N5CCC(Cc6ccc(C(N)=O)cc6)CC5)[nH]4)c3c2)c1C` [Example 263, 4-[(1-{[2-(5-{5-[(ethylamino)methyl]-4-methylpyridin-3-yl}-1H-indazol-3-y)-1H-imidazol-5-yl]carbonyl}piperidin-4-yl)methyl]benzamide] was 69%.
Turning to `CCNCc1cncc(-c2ccc3[nH]nc(-c4ncc(C(=O)NCC(=O)OCc5ccccc5)[nH]4)c3c2)c1C` [Example 200, benzyl N-{[2-(5-{5-[(ethylamino)methyl]-4-methylpyridin-3-yl}-1H-indazol-3-yl)-1H-imidazol-5-yl]carbonyl}glycinate], the “% Inhib @ 10 nM” value is recorded as 63%.
In the case of `CCNCc1cncc(-c2ccc3[nH]nc(-c4ncc(C(=O)N5CCCC(O)(CN6CCOCC6)CC5)[nH]4)c3c2)c1C` (stereo not drawn) [Example 268], the “% Inhib @ 10 nM” value is reported as 15%.
With `CCNCc1cncc(-c2ccc3[nH]nc(-c4ncc(C(=O)NCc5cc6cc[nH]c6cn5)[nH]4)c3c2)c1C` [Example 215], the “% Inhib @ 10 nM” value turned out to be 72%.
`CCNCc1cncc(-c2ccc3[nH]nc(-c4ncc(C(=O)N[C@H](CO)Cc5c[nH]c6ccccc56)[nH]4)c3c2)c1C` [Example 140, 2-(5-{5-[(ethylamino)methyl]-4-methylpyridin-3-yl}-1H-indazol-3-yl)-N-[(1S)-2-hydroxy-1-(1H-indol-3-ylmethyl)ethyl]-1 H-imidazole-5-carboxamide]: the “% Inhib @ 10 nM” value was found to be 31%.
The value for `CCNCc1cncc(-c2ccc3[nH]nc(-c4ncc(C(=O)N5CCCC(COCC6CC6)C5)[nH]4)c3c2)c1C` (stereo not drawn) [Example 269, [(5-(3-[5-({3-[(cyclopropylmethoxy)methyl]piperidin-1-yl}carbonyl)-1H-imidazol-2-yl]-1H-indazol-5-yl}-4-methylpyridin-3-yl)methyl]ethylamine] was 34%; that for `CCNCc1cncc(-c2ccc3[nH]nc(-c4ncc(C(=O)NCCN(C)CCCCCO)[nH]4)c3c2)c1C` [Example 199, 2-(5-{5-[(ethylamino)methyl]-4-methylpyridin-3-yl}-1H-indazol-3-yl)-N-{2-[(5-hydroxypentyl)(methyl)amino]ethyl}-1H-imidazole-5-carboxamide] was 25%.
The value for `CCNCc1cncc(-c2ccc3[nH]nc(-c4ncc(C(=O)N(C)C5CCN(C)C5)[nH]4)c3c2)c1C` (stereo not drawn) [Example 137, 2-(5-{5-[(ethylamino)methyl]-4-methylpyridin-3-yl}-1H-indazol-3-yl)-N-methyl-N-(1-methylpyrrolidin-3-yl)-1H-imidazole-5-carboxamide] was 37%; that for `CCNCc1cncc(-c2ccc3[nH]nc(-c4ncc(C(=O)NCC5COCCO5)[nH]4)c3c2)c1C` (stereo not drawn) [Example 237, N-(1,4-dioxan-2-ylmethyl)-2-(5-{5-[(ethyamino)methy]-4-methypyridin-3-yl}-1H-indazol-3-yl)-1H-imidazole-5-carboxamide] was 47%; that for `CCNCc1cncc(-c2ccc3[nH]nc(-c4ncc(C(=O)N5CCN(c6c(C)cccc6C)CC5)[nH]4)c3c2)c1C` [Example 133] was 67%.
The value for `CCNCc1cncc(-c2ccc3[nH]nc(-c4ncc(C(=O)N5CCC6(CC5)CC(N5CCCC5)CO6)[nH]4)c3c2)c1C` (stereo not drawn) [Example 254, ethyl{[4-methyl-5-(3-{5-[(3-pyrrolidin-1-yl-1-oxa-8-azaspiro[4.5]dec-8-yl)carbonyl]-1H-imidazol-2-yl}-1H-indazol-5-yl)pyridin-3-yl]methyl}amine] was 11%; that for `CCNCc1cncc(-c2ccc3[nH]nc(-c4ncc(C(=O)N(CCO)Cc5ccccc5)[nH]4)c3c2)c1C` [Example 124, N-benzyl-2-(5-{5-[(ethylamino)methyl]-4-methylpyridin-3-yl}-1H-indazol-3-yl)-N-(2-hydroxyethyl)-1H-imidazole-5-carboxamide] was 56%.
For `CCNCc1cncc(-c2ccc3[nH]nc(-c4ncc(C(=O)NCC5CCCO5)[nH]4)c3c2)c1C` (stereo not drawn) [Example 110, 2-(5-{5-[(ethylamino)methyl]-4-methylpyridin-3-yl}-1H-indazol-3-yl)-N-(tetrahydrofuran-2-ylmethyl)-1H-imidazole-5-carboxamide], the “% Inhib @ 10 nM” value came out at 66%.
The value for `CCNCc1cncc(-c2ccc3[nH]nc(-c4ncc(C(=O)N5CCCN(C(C)=O)CC5)[nH]4)c3c2)c1C` [Example 179, {[5-(3-(5-[(4-acetyl-1,4-diazepan-1-yl)carbonyl]-1H-imidazol-2-yl]-1H-indazol-5-yl)-4-methylpyridin-3-yl]methyl}ethylamine] was 53%; that for `CCNCc1cncc(-c2ccc3[nH]nc(-c4ncc(C(=O)NC(C)CO)[nH]4)c3c2)c1C` (stereo not drawn) [Example 100] was 65%; that for `CCNCc1cncc(-c2ccc3[nH]nc(-c4ncc(C(=O)NCCc5cc(OC)c(O)c(OC)c5)[nH]4)c3c2)c1C` [Example 167] was 28%.
The result for `CCNCc1cncc(-c2ccc3[nH]nc(-c4ncc(C(=O)NCc5ccc(S(C)(=O)=O)cc5)[nH]4)c3c2)c1C` [Example 202, 2-(5-{5-[(ethylamino)methyl]-4-methylpyridin-3-yl}-1H-indazol-3-yl)-N-[4-(methylsulfonyl)benzyl]-1H-imidazole-5-carboxamide] reads 49%.
Regarding `CCNCc1cncc(-c2ccc3[nH]nc(-c4ncc(C(=O)NCc5cccnc5)[nH]4)c3c2)c1C` [Example 101], the “% Inhib @ 10 nM” value came out at 54%.
The result for `CCNCc1cncc(-c2ccc3[nH]nc(-c4ncc(C(=O)N5CCC(c6nnc(CN(C)C)o6)CC5)[nH]4)c3c2)c1C` [Example 257] reads 37%; that for `CCNCc1cncc(-c2ccc3[nH]nc(-c4ncc(C(=O)NCc5ccc(C(F)(F)F)nc5)[nH]4)c3c2)c1C` [Example 188, 2-(5-{5-[(ethylamino)methyl]-4-methylpyridin-3-yl}-1H-indazol-3-yl)-N-{(6-(trifluoromethyl)pyridin-3-yl]methyl}-1H-imidazole-5-carboxamide], 41%; that for `CCNCc1cncc(-c2ccc3[nH]nc(-c4ncc(C(=O)N5CCCC(c6nc7ccccc7[nH]6)C5)[nH]4)c3c2)c1C` (stereo not drawn) [Example 183, ({5-[3-(5-{[3-(1H-benzimidazol-2-yl)piperidin-1-yl]carbonyl}-1H-imidazol-2-yl)-1H-indazol-5-yl]-4-methylpyridin-3-yl}methyl)ethylamine], 42%.
On to `CCNCc1cncc(-c2ccc3[nH]nc(-c4ncc(C(=O)NC5C6CC7CC(C6)CC5C7)[nH]4)c3c2)c1C` (stereo not drawn) [Example 126, N-2-adamantyl-2-(5-{5-[(ethylamino)methyl]-4-methylpyridin-3-yl}-1H-indazol-3-yl)-1H-imidazole-5-carboxamide], for which the “% Inhib @ 10 nM” value was 89%.
Take `CCNCc1cncc(-c2ccc3[nH]nc(-c4ncc(C(=O)N5CCC(C(=O)c6ccc(F)cc6)CC5)[nH]4)c3c2)c1C` [Example 142, (1-{[2-(5-{5-[(ethylamino)methyl]-4-methylpyridin-3-yl}-1H-indazol-3-yl)-1H-imidazol-5-yl]carbonyl}piperidin-4-yl)(4-fluorophenyl)methanone]: the “% Inhib @ 10 nM” value amounted to 65%.
The result for `CCNCc1cncc(-c2ccc3[nH]nc(-c4ncc(C(=O)N[C@@H]5CCCC[C@H]5OCc5ccccc5)[nH]4)c3c2)c1C` [Example 203, N-[(1R,2R)-2-(benzyloxy)cyclohexyl]-2-(5-{5-[(ethylamino)methyl]-4-methylpyridin-3-yl)-1H-indazol-3-yl)-1H-imidazole-5-carboxamide] reads 31%; that for `CCNCc1cncc(-c2ccc3[nH]nc(-c4ncc(C(=O)NC/C=C(\C)CCC=C(C)C)[nH]4)c3c2)c1C` [Example 157], 28%.
